Assays:
Type in all cases: biochemical
[1] = molecular target: T1, PDE4D (phosphodiesterase-4D) (Homo sapiens, UniProt Q08499); experiment: in vitro PDE inhibition assay (previously reported method)
PDE5A = PDE5A (Homo sapiens, UniProt O76074); experiment: in vitro PDE inhibition assay, % inhibition at […]; conditions: read-out: Inhibition (%) of Compounds at 50 μM / PDE5A
[2] = molecular target: T1, PDE4D (phosphodiesterase-4D); experiment: in vitro PDE inhibition assay, % inhibition at […]; conditions: read-out: Inhibition (%) of Compounds at 50 μM / PDE4D

T1 sequence (Q08499 whole entry): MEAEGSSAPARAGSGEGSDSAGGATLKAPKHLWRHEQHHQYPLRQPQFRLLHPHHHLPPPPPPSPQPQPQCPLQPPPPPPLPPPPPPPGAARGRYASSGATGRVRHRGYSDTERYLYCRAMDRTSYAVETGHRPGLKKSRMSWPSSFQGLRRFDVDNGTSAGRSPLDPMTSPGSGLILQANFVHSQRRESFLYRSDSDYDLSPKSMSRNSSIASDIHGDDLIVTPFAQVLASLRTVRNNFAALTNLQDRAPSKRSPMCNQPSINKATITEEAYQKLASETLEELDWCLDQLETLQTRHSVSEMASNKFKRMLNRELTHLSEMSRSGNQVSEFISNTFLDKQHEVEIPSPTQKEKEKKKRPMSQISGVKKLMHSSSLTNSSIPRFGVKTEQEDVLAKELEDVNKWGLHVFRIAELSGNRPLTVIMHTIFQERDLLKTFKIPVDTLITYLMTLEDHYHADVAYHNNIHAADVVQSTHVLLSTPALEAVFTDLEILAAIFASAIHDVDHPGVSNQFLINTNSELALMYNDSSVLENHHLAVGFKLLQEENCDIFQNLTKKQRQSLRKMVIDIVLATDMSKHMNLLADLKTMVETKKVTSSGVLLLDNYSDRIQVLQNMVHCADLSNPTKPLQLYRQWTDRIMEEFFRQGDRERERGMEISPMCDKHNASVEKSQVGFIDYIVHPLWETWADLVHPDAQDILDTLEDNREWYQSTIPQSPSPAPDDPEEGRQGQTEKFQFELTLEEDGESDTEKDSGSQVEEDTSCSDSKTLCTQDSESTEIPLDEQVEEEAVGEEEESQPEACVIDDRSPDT

| Structure (SMILES) | IC50 [1] | inhibition at 50 µM (PDE5A) | inhibition at 50 µM [2] |
| --- | --- | --- | --- |
| CC(C)=CC(=O)C/C(C)=C/CC/C(C)=C/CC/C(C)=C/Cn1cnc2c1c(=O)ncn2C [compound 1, malonganenone L] | 8.5 µM | 53% | – |
| CC(C)=CC(=O)/C=C(\C)CCC/C(C)=C/CC/C(C)=C/Cn1cnc2c1c(=O)ncn2C [compound 3, malonganenone N] | – | – | 81% |
| CNC(=O)c1c(N(C)C=O)ncn1C/C=C(\C)CC/C=C(\C)CC/C=C(\C)CC(=O)C=C(C)C [compound 4, malonganenone O] | – | – | 79% |
| CNC(=O)c1c(N(C)C=O)ncn1C/C=C(\C)CC/C=C(\C)CCC/C(C)=C\C(=O)C=C(C)C [compound 6, malonganenone Q] | 20.3 µM | – | – |
| CC(C)=CC(=O)C/C(C)=C\CC/C(C)=C/CC/C(C)=C/Cn1cnc2c1c(=O)ncn2C [compound 2, malonganenone M] | – | – | 72% |
| CNC(=O)c1c(N(C)C=O)ncn1C/C=C(\C)CC/C=C(\C)CC/C=C(/C)CC(=O)C=C(C)C [compound 5, malonganenone P] | – | – | 75% |

— paper PMC3944508, “Six New Tetraprenylated Alkaloids from the South China Sea Gorgonian Echinogorgia pseudossapo” (Marine Drugs, 2014)
